In patent US20100179059A1, “Fungicidal Mixtures” (BASF SE, priority 2007, published 2010):
Where two headings read alike, the source gives them in different places.

Experiments:
Assay type in all cases: cell-based
Botrytis cinerea = test: Activity against the grey mold Botrytis cinerea in the microtiterplate test
Septoria tritici = test: Activity against leaf blotch on wheat caused by Septoria tritici (microtiter plate); settings: active compound alone, 7 days after inoculation
Pyricularia oryzae = settings: active compound alone, 7 days after inoculation
[1] = Botrytis cinerea, 168 h, active compound alone, 0.063 ppm, 7 days after inoculation, read-out: Observed efficacy
[2] = Botrytis cinerea, 168 h, active compound alone, 7 days after inoculation, read-out: Observed efficacy

`Fc1ccc([C@]2(Cn3cncn3)O[C@H]2c2ccccc2Cl)cc1` (racemic) [Epoxiconazol, (2RS,3SR)-1-[3-(2-chlorophenyl)-2,3-epoxy-2-(4-fluorophenyl)propyl]-1H-1,2,4-triazole, reference compound] showed an inhibition of growth at 0.25 ppm (Botrytis cinerea; Botrytis cinerea, 168 h, active compound alone, 0.25 ppm, 7 days after inoculation, read-out: Observed efficacy) of 37% and an Observed efficacy (Septoria tritici; 0.063 ppm) of 66%.

`CC(C)OC(=O)N[C@H](C(=O)N[C@H](C)c1nc2ccc(F)cc2s1)C(C)C` [Benthivalicarb, isopropyl {(S)-1-[(1R)-1-(6-fluorobenzothiazol-2-yl)ethylcarbamoyl]-2-methylpropyl}carbamate, reference compound] was tested, and the inhibition of growth at 0.063 ppm (Botrytis cinerea; Botrytis cinerea, 168 h, read-out: Observed efficacy) was 0%.

`COC(=O)Nc1nc2ccccc2[nH]1` [Carbendazim, methyl (1H-benzoimidazol-2-yl)-carbamate, reference compound] showed an inhibition of growth at 0.063 ppm (Botrytis cinerea; [1]) of 74% and an Observed efficacy (Pyricularia oryzae; 0.25 ppm) of 30%.

`OC(c1cccnc1)c1c(-c2ccc(Cl)cc2Cl)noc1-c1cccc(Cl)c1` (centres unmarked) [Cmpd No. 4, 5-(3-Chlorophenyl)-3-(2,4-dichlorophenyl)-4-[(3-pyridyl)hydroxymethyl]-isoxazole] was tested, and the inhibition of growth at 0.001 ppm (Botrytis cinerea; [2]) was 2%.

Compound `CC(C)(C)c1onc(-c2ccc(Cl)cc2Cl)c1C(O)c1cccnc1` (centres unmarked) [Cmpd No. 7, 3-(2,4-Dichlorophenyl)-5-(1,1-dimethylethyl)-4-[(3-pyridyl)hydroxymethyl]-isoxazole] has an Observed efficacy (Pyricularia oryzae; 0.001 ppm) of 2%.

In the case of `OC(c1cccnc1)c1c(-c2ccc(Cl)cc2)noc1-c1ccc(F)cc1` (centres unmarked) [Cmpd No. 88, 3-(4-Chlorophenyl)-5-(4-fluorophenyl)-4-[(3-pyridyl)-hydroxymethyl]-isoxazole], the Observed efficacy (Pyricularia oryzae; 1 ppm) is reported as 3%.

Work on `OC(c1cccnc1)c1c(-c2ccc(F)cc2)noc1-c1ccccc1Cl` (centres unmarked) [Cmpd No. 90, 5-(2-Chlorophenyl)-3-(4-fluorophenyl)-4-[(3-pyridyl)-hydroxymethyl]-isoxazole] yielded an inhibition of growth at 4e-06 ppm (Botrytis cinerea; Botrytis cinerea, 168 h, active compound alone, 0.000004 ppm, 7 days after inoculation, read-out: Observed efficacy) of 5%, an inhibition of growth at 1.6e-05 ppm (Botrytis cinerea; Botrytis cinerea, 168 h, active compound alone, 0.000016 ppm, 7 days after inoculation, read-out: Observed efficacy) of 5% and an inhibition of growth at 6.3e-05 ppm (Botrytis cinerea; Botrytis cinerea, 168 h, active compound alone, 0.000063 ppm, 7 days after inoculation, read-out: Observed efficacy) of 1%. For the same compound, the inhibition of growth at 0.00025 ppm (Botrytis cinerea; [2]) was 1%, the Observed efficacy (Pyricularia oryzae; 0.000063 ppm) was 6% and the Observed efficacy (Septoria tritici; 0.00025 ppm) was 9%.

`OC(c1cccnc1)c1c(-c2cc(F)cc(F)c2)noc1-c1ccc(Cl)cc1` (centres unmarked) [Cmpd No. 124, 5-(4-Chlorophenyl)-3-(3,5-difluorophenyl)-4-[(3-pyridyl)-hydroxymethyl]-isoxazole] gave an inhibition of growth at 0.001 ppm (Botrytis cinerea; [2]) of 1%.

Compound `OC(c1cccnc1)c1c(-c2ccc(Cl)cc2F)noc1-c1ccccc1F` (centres unmarked) [Cmpd No. 144, 3-(4-Chloro-2-fluorophenyl)-4-[(3-pyridyl)-hydroxymethyl]-5-(2-fluorophenyl)-isoxazole] has an inhibition of growth at 0.00025 ppm (Botrytis cinerea; [2]) of 4%, an inhibition of growth at 0.001 ppm (Botrytis cinerea; [2]) of 2% and an Observed efficacy (Septoria tritici; 0.016 ppm) of 16%.

For `OC(c1cccnc1)c1c(-c2ccc(F)cc2F)noc1-c1ccc(Cl)cc1F` (centres unmarked) [Cmpd No. 145, 3-(2,4-Difluorophenyl)-4-[(3-pyridyl)-hydroxymethyl]-5-(4-chloro-2-fluorophenyl)-isoxazole], the inhibition of growth at 0.001 ppm (Botrytis cinerea; [2]) was 20% and the Observed efficacy (Pyricularia oryzae; 0.000063 ppm) was 10%.

`OC(Cc1ccccc1Cl)(Cn1nc[nH]c1=S)C1(Cl)CC1` (centres unmarked) [Prothioconazol, 2-[2-(1-chlorocyclopropyl)-3-(2-chlorophenyl)-2-hydroxypropyl]-2,4-dihydro-[1,2,4]triazole-3-thione, reference compound] gave an inhibition of growth at 1 ppm (Botrytis cinerea; Botrytis cinerea, 168 h, active compound alone, 1 ppm, 7 days after inoculation, read-out: Observed efficacy) of 46%.

`COC(=O)N(OC)c1ccccc1COc1ccn(-c2ccc(Cl)cc2)n1` [Pyraclostrobin, reference compound] showed an Observed efficacy (Pyricularia oryzae; 0.016 ppm) of 67%.

Compound `Cc1cc(C)nc(Nc2ccccc2)n1` [Pyrimethanil, 4,6-dimethylpyrimidin-2-ylphenylamine, reference compound] has an inhibition of growth at 0.063 ppm (Botrytis cinerea; [1]) of 5% and an Observed efficacy (Septoria tritici; 16 ppm) of 38%.

“manganese ethylenebis(dithiocarbanate) zinc complex [Mancozeb]” showed an Observed efficacy (Septoria tritici; 4 ppm) of 52%.

“zinc propylenebis(dithiocarbamate) polymer [Propineb, reference compound]” showed an Observed efficacy (Botrytis cinerea; active compound alone, 4 ppm, 7 days after inoculation) of 32%.
